Read-outs that look alike come from different tables or passages of the source.
Assays:
[1] = ongoing first phase 1 trial of Compound A (pharmacokinetics); parameters: species or system patients; settings: human, in vivo, oral
Excerpt: This schedule (C) includes 11 dosing days in a 3-week cycle.

[2] = parameters: species or system patients; settings: human, in vivo
Method: If deemed safe, then dose escalation to dose intensities at and above that given in the 3-4 schedule at 270 mg/day will be performed. For safety reasons, the first cohorts of patients enrolled in schedules C, D, E and F will be treated with lower doses (dose level 1: 14% to 37% of dose intensity of 3-4 schedule at 270 mg). Then in the subsequent cohorts, the dose will be escalated by 50%-100%.

half-life ([1]; mean, read-out: mean terminal half-life (converted)): 42.2 h
half-life ([1]; range, read-out: terminal half-life (range)): 10 to 93 h
highest safe dose tested so far [2]: 270 mg/day
SMILES: CC(C)(C(=O)NCC(F)(F)C(F)(F)F)C(=O)N[C@@H]1C(=O)Nc2ccccc2-c2ccccc21 [Compound A, 2,2-dimethyl-N-((S)-6-oxo-6,7-dihydro-5H-dibenzo[b,d]azepin-7-yl)-N′-(2,2,3,3,3-pentafluoro-propyl)-malonamide]

Reference: patent US20140357620A1, “METHOD FOR ADMINISTRATION OF A GAMMA SECRETASE INHIBITOR” (Hoffmann-La Roche Inc., priority 2011, published 2014)
